According to ChEMBL document CHEMBL4402560, “Sarco/Endoplasmic Reticulum Calcium ATPase Inhibitors: Beyond Anticancer Perspective” (J Med Chem, 2020):
Values belong to the molecule of their own block, whether it stands above or below them.

Key:
[1] = molecular target: T1, Sarcoplasmic/endoplasmic reticulum calcium ATPase 1 (Oryctolagus cuniculus, UniProt P04191); assay: Inhibition of rabbit skeletal muscle microsomes SERCA1a preincubated for 10 mins followed by addition of ATP and measured after 40 mins
T1 sequence (P04191 whole entry): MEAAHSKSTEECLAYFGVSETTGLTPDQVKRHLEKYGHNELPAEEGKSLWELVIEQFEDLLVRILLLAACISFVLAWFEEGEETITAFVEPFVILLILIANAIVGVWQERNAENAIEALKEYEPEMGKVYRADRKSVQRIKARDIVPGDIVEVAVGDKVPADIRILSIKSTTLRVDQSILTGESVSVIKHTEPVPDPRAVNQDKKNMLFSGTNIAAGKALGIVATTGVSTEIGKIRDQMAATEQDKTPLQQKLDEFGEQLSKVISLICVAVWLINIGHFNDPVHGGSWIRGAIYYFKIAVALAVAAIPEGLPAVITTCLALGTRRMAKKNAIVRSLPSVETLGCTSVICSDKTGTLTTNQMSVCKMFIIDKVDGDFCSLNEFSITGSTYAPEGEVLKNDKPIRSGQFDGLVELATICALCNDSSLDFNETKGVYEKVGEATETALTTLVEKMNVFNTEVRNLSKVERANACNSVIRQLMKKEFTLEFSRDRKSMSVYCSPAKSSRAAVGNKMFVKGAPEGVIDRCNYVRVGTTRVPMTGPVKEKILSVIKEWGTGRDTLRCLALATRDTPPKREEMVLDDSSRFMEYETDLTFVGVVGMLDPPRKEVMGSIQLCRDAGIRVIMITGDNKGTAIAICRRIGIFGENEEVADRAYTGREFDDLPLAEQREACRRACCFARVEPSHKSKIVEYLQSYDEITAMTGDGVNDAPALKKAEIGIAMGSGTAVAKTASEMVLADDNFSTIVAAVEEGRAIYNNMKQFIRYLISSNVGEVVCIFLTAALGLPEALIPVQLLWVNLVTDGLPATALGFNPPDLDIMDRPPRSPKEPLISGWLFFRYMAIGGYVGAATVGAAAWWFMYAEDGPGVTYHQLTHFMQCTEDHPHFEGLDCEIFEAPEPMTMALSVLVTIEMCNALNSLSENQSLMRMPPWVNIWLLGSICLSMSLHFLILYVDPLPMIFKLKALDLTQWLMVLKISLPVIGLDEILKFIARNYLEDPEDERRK

Homo sapiens = organism: Homo sapiens; assay: Inhibition of SERCA (unknown origin) at 150 uM relative ro control
[2] = molecular target: T1, Sarcoplasmic/endoplasmic reticulum calcium ATPase 1; assay: Inhibition of rabbit microsomes SERCA1a by enzyme-coupled method
[3] = Inhibition of fish liver microsomes SERCA by enzyme-coupled method; parameters: species or system Squalius cephalus
[4] = molecular target: Sarcoplasmic/endoplasmic reticulum calcium ATPase 2 (Rattus norvegicus, UniProt P11507); assay: Inhibition of rat cerebellar microsomes SERCA2b by enzyme-coupled method; parameters: species or system Cerebellum
Sequence of Sarcoplasmic/endoplasmic reticulum calcium ATPase 2 (Rattus norvegicus, UniProt P11507) (P11507 whole entry): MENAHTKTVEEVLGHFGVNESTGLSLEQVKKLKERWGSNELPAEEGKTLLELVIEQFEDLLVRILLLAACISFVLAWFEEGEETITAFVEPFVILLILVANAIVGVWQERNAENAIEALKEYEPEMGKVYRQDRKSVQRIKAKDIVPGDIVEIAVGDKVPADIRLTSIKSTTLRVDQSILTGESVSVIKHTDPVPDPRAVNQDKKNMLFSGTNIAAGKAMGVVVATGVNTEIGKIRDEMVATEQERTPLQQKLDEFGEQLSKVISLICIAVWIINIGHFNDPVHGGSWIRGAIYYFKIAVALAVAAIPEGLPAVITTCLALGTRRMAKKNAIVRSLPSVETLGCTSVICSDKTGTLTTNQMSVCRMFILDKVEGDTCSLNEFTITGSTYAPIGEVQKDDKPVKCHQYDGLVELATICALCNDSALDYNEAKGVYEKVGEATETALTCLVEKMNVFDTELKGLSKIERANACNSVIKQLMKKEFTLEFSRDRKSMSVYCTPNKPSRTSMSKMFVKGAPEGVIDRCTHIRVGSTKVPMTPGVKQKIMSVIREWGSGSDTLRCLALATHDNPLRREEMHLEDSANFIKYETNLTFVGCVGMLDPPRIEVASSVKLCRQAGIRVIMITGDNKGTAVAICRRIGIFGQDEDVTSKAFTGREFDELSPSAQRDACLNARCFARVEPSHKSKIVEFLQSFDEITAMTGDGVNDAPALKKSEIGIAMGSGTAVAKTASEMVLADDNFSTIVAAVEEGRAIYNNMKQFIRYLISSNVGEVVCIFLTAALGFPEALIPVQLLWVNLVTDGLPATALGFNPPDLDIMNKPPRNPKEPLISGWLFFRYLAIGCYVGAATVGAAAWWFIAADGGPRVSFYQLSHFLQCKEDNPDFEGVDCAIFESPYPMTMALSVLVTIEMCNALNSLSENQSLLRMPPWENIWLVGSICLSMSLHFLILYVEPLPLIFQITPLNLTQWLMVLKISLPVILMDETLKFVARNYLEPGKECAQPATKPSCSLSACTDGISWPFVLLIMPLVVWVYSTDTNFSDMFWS

[5] = molecular target: T1, Sarcoplasmic/endoplasmic reticulum calcium ATPase 1; assay: Inhibition of rabbit skeletal muscle microsomes SERCA1a by enzyme-coupled method
[6] = molecular target: T1, Sarcoplasmic/endoplasmic reticulum calcium ATPase 1; assay: Inhibition of rabbit skeletal muscle microsomes SERCA1a
[7] = molecular target: T1, Sarcoplasmic/endoplasmic reticulum calcium ATPase 1; assay: Inhibition of SERCA1 in rabbit skeletal muscle microsomes assessed as decrease in NADH absorbance by NADH-coupled enzyme assay; parameters: species or system Muscle tissue
[8] = molecular target: T2, Sarcoplasmic/endoplasmic reticulum calcium ATPase 2 (Homo sapiens, UniProt P16615); assay: Inhibition of SERCA2a (unknown origin)
T2 sequence (P16615 whole entry): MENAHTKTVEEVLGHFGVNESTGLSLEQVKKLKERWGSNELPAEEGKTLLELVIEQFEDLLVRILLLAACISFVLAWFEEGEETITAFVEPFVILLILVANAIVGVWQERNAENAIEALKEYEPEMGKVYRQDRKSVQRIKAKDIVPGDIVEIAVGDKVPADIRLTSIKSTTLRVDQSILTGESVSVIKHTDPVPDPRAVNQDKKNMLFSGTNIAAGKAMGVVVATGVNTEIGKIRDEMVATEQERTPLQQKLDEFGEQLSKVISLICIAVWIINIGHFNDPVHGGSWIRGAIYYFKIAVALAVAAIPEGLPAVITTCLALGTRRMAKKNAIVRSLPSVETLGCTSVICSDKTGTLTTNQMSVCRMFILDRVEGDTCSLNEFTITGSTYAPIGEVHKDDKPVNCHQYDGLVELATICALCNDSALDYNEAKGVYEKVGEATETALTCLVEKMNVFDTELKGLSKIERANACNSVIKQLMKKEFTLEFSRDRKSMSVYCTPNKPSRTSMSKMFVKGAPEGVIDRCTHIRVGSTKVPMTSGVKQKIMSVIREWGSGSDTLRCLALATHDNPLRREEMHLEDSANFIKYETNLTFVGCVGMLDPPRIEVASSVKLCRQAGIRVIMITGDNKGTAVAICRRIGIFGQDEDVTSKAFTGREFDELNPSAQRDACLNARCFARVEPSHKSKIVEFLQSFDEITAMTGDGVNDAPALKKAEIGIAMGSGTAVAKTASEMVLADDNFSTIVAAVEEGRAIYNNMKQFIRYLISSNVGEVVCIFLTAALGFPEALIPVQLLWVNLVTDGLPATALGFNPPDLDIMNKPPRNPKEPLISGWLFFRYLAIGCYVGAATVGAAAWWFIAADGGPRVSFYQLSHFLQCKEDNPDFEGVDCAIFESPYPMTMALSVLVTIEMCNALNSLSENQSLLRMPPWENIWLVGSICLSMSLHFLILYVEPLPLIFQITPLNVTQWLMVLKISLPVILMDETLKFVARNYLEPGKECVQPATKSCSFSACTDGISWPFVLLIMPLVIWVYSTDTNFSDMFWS

[9] = Inhibition of SERCA (unknown origin); parameters: species or system Homo sapiens
[10] = molecular target: T1, Sarcoplasmic/endoplasmic reticulum calcium ATPase 1; assay: Inhibition of rabbit skeletal muscle microsomes SERCA1a incubated for 10 mins by enzyme-coupled method
[11] = molecular target: T2, Sarcoplasmic/endoplasmic reticulum calcium ATPase 2; assay: Inhibition of human SERCA2b expressed in COS7 cells microsomal membranes preincubated for 10 mins followed by addition of ATP and measured after 40 mins by ELISA method; format: cell-based
[12] = molecular target: T1, Sarcoplasmic/endoplasmic reticulum calcium ATPase 1; assay: Inhibition of rabbit SERCA1b expressed in COS7 cells microsomal membranes preincubated for 10 mins followed by addition of ATP and measured after 40 mins by ELISA method; format: cell-based
[13] = molecular target: Sarcoplasmic/endoplasmic reticulum calcium ATPase 3 (Homo sapiens, UniProt Q93084); assay: Inhibition of human SERCA3a expressed in COS7 cells microsomal membranes preincubated for 10 mins followed by addition of ATP and measured after 40 mins by ELISA method; format: cell-based
Sequence of Sarcoplasmic/endoplasmic reticulum calcium ATPase 3 (Q93084 whole entry): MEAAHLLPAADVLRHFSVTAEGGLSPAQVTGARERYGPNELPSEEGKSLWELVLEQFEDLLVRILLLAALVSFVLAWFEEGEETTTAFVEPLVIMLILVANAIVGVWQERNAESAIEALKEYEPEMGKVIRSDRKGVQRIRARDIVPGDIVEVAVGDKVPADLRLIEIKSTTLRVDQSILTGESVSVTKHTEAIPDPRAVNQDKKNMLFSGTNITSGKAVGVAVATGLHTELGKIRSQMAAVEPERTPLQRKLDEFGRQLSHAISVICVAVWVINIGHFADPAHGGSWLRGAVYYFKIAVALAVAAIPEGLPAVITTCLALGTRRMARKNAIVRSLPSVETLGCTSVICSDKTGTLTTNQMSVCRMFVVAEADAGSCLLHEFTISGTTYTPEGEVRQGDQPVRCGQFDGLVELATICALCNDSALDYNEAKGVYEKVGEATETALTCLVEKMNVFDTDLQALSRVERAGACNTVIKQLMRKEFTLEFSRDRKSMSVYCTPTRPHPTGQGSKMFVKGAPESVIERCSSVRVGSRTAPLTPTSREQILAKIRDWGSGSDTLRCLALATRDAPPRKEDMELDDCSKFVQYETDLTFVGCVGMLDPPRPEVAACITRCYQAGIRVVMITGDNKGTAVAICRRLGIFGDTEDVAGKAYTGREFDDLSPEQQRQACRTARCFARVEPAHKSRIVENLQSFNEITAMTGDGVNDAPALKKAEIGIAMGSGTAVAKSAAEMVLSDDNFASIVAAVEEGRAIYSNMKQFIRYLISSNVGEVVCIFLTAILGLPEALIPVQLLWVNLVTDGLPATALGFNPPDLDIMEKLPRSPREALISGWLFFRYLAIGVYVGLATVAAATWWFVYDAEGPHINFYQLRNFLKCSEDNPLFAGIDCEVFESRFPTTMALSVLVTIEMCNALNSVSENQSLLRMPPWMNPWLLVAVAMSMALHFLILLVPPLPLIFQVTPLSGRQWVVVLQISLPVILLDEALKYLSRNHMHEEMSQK

[14] = Inhibition of porcine cerebellar microsomes SERCA2b by enzyme-coupled method; parameters: species or system Sus scrofa domesticus, Cerebellum
[15] = molecular target: T1, Sarcoplasmic/endoplasmic reticulum calcium ATPase 1; assay: Inhibition of rabbit skeletal muscle microsomes SERCA1a by malachite green based colorimetric method
[16] = molecular target: T1, Sarcoplasmic/endoplasmic reticulum calcium ATPase 1; assay: Inhibition of rabbit skeletal muscle microsomes SERCA1a preincubated for 10 mins followed by addition of ATP and measured after 30 mins
[17] = Inhibition of SERCA2a in porcine cardiac microsomes; parameters: species or system Sus scrofa domesticus, Heart

Compound: O=c1c(O)c(-c2ccc(O)c(O)c2)oc2cc(O)cc(O)c12 [QUERCETIN]
IC50 [1]: 9 µM

inhibition (Homo sapiens): 100%
Compound: O=C1c2c(O)cc(O)cc2OC2(c3ccc(O)c(O)c3)Oc3cc(-c4oc5cc(O)cc(O)c5c(=O)c4O)ccc3OC12O (configuration not stated)

Compound: CC(C)(c1ccc(O)cc1)c1ccc(O)cc1 [BISPHENOL A]
IC50 [2]: 233 µM
IC50 [3]: 233 µM
IC50 [4]: 2 µM
IC50 [5]: 2 µM

IC50 [6]: 0.27 to 0.3 µM
Compound: CC[C@H](C)[C@H](NC(=O)CCCCCNC(=O)[C@H](Cc1ccc(O)cc1)NC(=O)[C@H](CCCNC(=N)N)NC(=O)[C@@H]1CCCN1C(=O)[C@H](CCCNC(=N)N)NC(=O)[C@H](CC(N)=O)NC(=O)[C@H](CCC(N)=O)NC(=O)[C@@H](Cc1ccc(O)cc1)N(C)C(=O)Cc1ccccc1)C(=O)N[C@@H](CC(N)=O)C(=O)N[C@@H](CC(C)C)C(=O)N[C@@H](CCCCN)C(=O)N[C@@H](C)C(=O)N[C@@H](CC(C)C)C(=O)N[C@@H](C)C(=O)N[C@@H](C)C(=O)N[C@@H](CC(C)C)C(=O)N[C@@H](C)C(=O)N[C@@H](CCCCN)C(=O)N[C@@H](CCCCN)C(=O)N[C@H](C(=O)N[C@@H](CC(C)C)C(N)=O)[C@@H](C)CC

IC50 [7]: 28 µM
Compound: CCCCC/C=C\C/C=C\CCCCCCCC(=O)O[C@@H]1[C@@H](O)[C@@H](O)[C@H](OC[C@H]2O[C@@H](Oc3c(-c4ccc(O)c(O)c4)oc4cc(O)cc(O)c4c3=O)[C@H](O)[C@@H](O)[C@@H]2O)O[C@H]1C

Compound: C/C=C/C/C(C)=C\[C@H]1C/C=C/C=C/C[C@H](C)/C=C(\C)[C@@H](OC)C/C=C/[C@@H](O)CC(=O)O1
Ki [6]: 0.017 µM
Ki [8]: 0.027 µM

IC50 [9]: 15 µM
IC50 [2]: 14 to 20 µM
IC50 [3]: 7 to 20 µM
Compound: CC/C(=C(/CC)c1ccc(O)cc1)c1ccc(O)cc1 [DIETHYLSTILBESTROL]

Compound: OCCN1CCN(CCCN2c3ccccc3Sc3ccc(C(F)(F)F)cc32)CC1 [FLUPHENAZINE]
IC50 [10]: 15 µM

IC50 [9]: 0.4 µM
IC50 [11]: 2 to 7 µM
IC50 [12]: 2 to 7 µM
IC50 [13]: 2 to 7 µM
Compound: CC(C)(C)c1cc(O)c(C(C)(C)C)cc1O

IC50 [10]: 45 µM
Compound: CN1CCN(CCCN2c3ccccc3Sc3ccc(C(F)(F)F)cc32)CC1 [TRIFLUOPERAZINE]

IC50 [14]: 27 µM
IC50 [5]: 27 to 53 µM
Compound: C[C@H](C[C@H](O)[C@H]1OC1(C)C)C1=C2C[C@H](O)[C@H]3[C@@]4(C)CCC(=O)C(C)(C)[C@@H]4CC[C@]3(C)[C@@]2(C)CC1 [ALISOL B]

IC50 [14]: 23 µM
IC50 [5]: 23 µM
Compound: CCOC(=O)CC1C(C(=O)OCC)=C(N)Oc2ccc(-c3ccccc3)cc21 (configuration not stated)

IC50 [6]: 30 µM
Compound: Cc1ccc(-c2cc(C(F)(F)F)nn2-c2ccc(S(N)(=O)=O)cc2)c(C)c1

IC50 [15]: 8 µM
Compound: Clc1cccc(C(Nc2ccnc3cc(Cl)ccc23)c2ccc(CN3CCCC3)cc2)c1 (configuration not stated)

Compound: Cc1cc(O)ccc1Cl [CHLOROCRESOL]
IC50 [16]: 2800 µM

Compound: O=C1CSC(c2ccccc2Cl)c2cc(Cl)ccc2N1 (configuration not stated)
IC50 [6]: 6.6 µM
IC50 [17]: 9.9 µM

Compound: O=C(O[C@@H]1Cc2c(O)cc(O)cc2O[C@@H]1c1cc(O)c(O)c(O)c1)c1cc(O)c(O)c(O)c1 [EPIGALOCATECHIN GALLATE]
IC50 [6]: 12 µM

Compound: C/C=C/C/C(C)=C\[C@H]1C/C=C/C=C/C[C@H](C)/C=C(\C)[C@@H](OC)C/C=C/[C@@H](O[C@@H]2O[C@H](CO)[C@@H](O)[C@H](OC)[C@H]2O)CC(=O)O1
Ki [8]: 0.011 µM

Compound: C/C=C/C/C(C)=C\[C@@H]1OC(=O)C[C@H](O[C@@H]2O[C@H](CO)[C@@H](O)[C@H](OC)[C@H]2O)/C=C/C[C@H](OC)/C(C)=C/[C@@H](C)C[C@H]2C=C[C@H]1OO2
Ki [6]: 0.018 µM
Ki [8]: 0.0013 µM
